Values of other authors, collected in patent publication US10316053B2, “Flavonoid compounds and uses thereof” (ARMARON BIO PTY LTD, priority 2012, dated 2019).

Test system: myocardial ischaemia and reperfusion
Details: in vitro studies; Wang et al., Br J Pharmacol (2004) 142, 443-452

O=c1c(O)c(-c2ccc(O)c(O)c2)oc2ccccc12 [DiOHF, 3′,4′-dihydroxy flavonol]
infarct and injury associated with myocardial ischaemia and reperfusion: reduce infarct and injury
